In one data set the test system is pressor response to AII. Description: Assay C: In Vivo Intragastric Pressor Assay Response for AII Antagonists. The following applies: for Assay C Duration: Dose: 3 mg/kg (i.g.), Sprague-Dawley rats, AII challenges up to 180 minutes after gavage; for inhibition in vivo at 3 mg/kg: Rattus norvegicus, po. Further details: species or system rat. As to the method: Assay C: In Vivo Intragastric Pressor Assay Response for AII Antagonists
Male Sprague-Dawley rats weighing 225-300 grams were anesthetized with methohexital (30 mg/kg, i.p.) and catheters were implanted into the femoral artery and vein. The catheters were tunneled subcutaneously to exit dorsally, posterior to the head and between the scapulae. The catheters were filled with heparin (1000 units/ml of saline). The rats were returned to their cage and allowed regular rat chow and water ad libitum. After full recovery from surgery (3-4 days), rats were placed in Lucite holders and the arterial line was connected to a pressure transducer. Arterial pressure was recorded on a Gould polygraph (mmHg). Angiotensin II was administered as a 30 ng/kg bolus via the venous catheter delivered in a 50 μl volume with a 0.2 ml saline flush. The pressor response in mm Hg was measured by the difference from pre-injection arterial pressure to the maximum pressure achieved. The AII injection was repeated every 10 minutes until three consecutive injections yielded responses within 4 mmHg of each other. These three responses were then averaged and represented the control response to AII. The test compound was suspended in 0.5% methylcellulose in water and was administered by gavage. The volume administered was 2 ml/kg body weight. The standard dose was 3 mg/kg. Angiotensin II bolus injections were given at 30, 45, 60, 75, 120, 150, and 180 minutes after gavage. The pressor response to AII was measured at each time point. The rats were then returned to their cage for future testing. A minimum of 3 days was allowed between tests. Percent inhibition was calculated for each time point following gavage by the following formula: [(Control Response−Response at time point)/Control Response]×100.

Data set [1] has as its target smooth muscle angiotensin II receptor. Description: Assay A: Angiotensin II Binding Activity (125I-angiotensin II displacement, rat uterine membrane preparation). The following applies: 50% displacement of specifically bound 125I-AII, rat uterine membranes, 25° C., 60 min. The method, then:
Assay A: Angiotensin II Binding Activity
Compounds of the invention were tested for ability to bind to the smooth muscle angiotensin II receptor using a rat uterine membrane preparation. […] Other chemicals were obtained from Sigma Chemical Co. This assay was carried out according to the method of Douglas et al [Endocrinology, 106, 120-124 (1980)]. Rat uterine membranes were prepared from fresh tissue. All procedures were carried out at 4° C. Uteri were stripped of fat and homogenized in phosphate-buffered saline at pH 7.4 containing 5 mM EDTA. The homogenate was centrifuged at 1500×g for 20 min., and the supernatant was recentrifuged at 100,000×g for 60 min. The pellet was resuspended in buffer consisting of 2 mM EDTA and 50 mM Tris-HCl (pH 7.5) to a final protein concentration of 4 mg/ml. Assay tubes were charged with 0.25 ml of a solution containing 5 mM MgCl2, 2 mM EDTA, 0.5% bovine serum albumin, 50 mM Tris-HCl, pH 7.5 and […] (approximately 10^5 cpm) in the absence or in the presence of unlabelled ligand. The reaction was initiated by the addition of membrane protein and the mixture was incubated at 25° C. for 60 min. The incubation was terminated with ice-cold 50 mM Tris-HCl (pH 7.5) and the mixture was filtered to separate membrane-bound labelled peptide from the free ligand. The incubation tube and filter were washed with ice-cold buffer. Filters were assayed for radioactivity in a Micromedic gamma counter. Nonspecific binding was defined as binding in the presence of 10 μM of unlabelled AII. Specific binding was calculated as total binding minus nonspecific binding. […] Binding data were analyzed by a nonlinear least-squares curve fitting program.

For a further data set, the system named is rabbit aortic rings. In words: Assay B: In Vitro Vascular Smooth Muscle Response for AII (antagonist activity in rabbit aortic rings). It is filed as cell-based. The following applies: Oryctolagus cuniculus, test antagonist at 10^-5 M, AII contraction, read-out: Assay B pA2 (converted). The method, then:
Assay B: In Vitro Vascular Smooth Muscle-Response for AII
The compounds of the invention were tested for antagonist activity in rabbit aortic rings. Male New Zealand white rabbits (2-2.5 kg) were sacrificed using an overdose of pentobarbital and exsanguinated via the carotid arteries. The thoracic aorta was removed, cleaned of adherent fat and connective tissue and then cut into 3-mm ring segments. The endothelium was removed from the rings by gently sliding a rolled-up piece of filter paper into the vessel lumen. The rings were then mounted in a water-jacketed tissue bath, maintained at 37° C., between moveable and fixed ends of a stainless steel wire with the moveable end attached to an FT03 Grass transducer coupled to a Model 7D Grass Polygraph for recording isometric force responses. The bath was filled with 20 ml of oxygenated (95% oxygen/5% carbon dioxide) Krebs solution of the following composition (mM): 130 NaCl, 15 NaHCO3, […], 1.2 NaH2PO4, 1.2 MgSO4, 2.5 CaCl2, and 11.4 glucose. The preparations were equilibrated for one hour before approximately one gram of passive tension was placed on the rings. Angiotensin II concentration-response curves were then recorded (3×10^−10 to 1×10^−5 M). Each concentration of AII was allowed to elicit its maximal contraction, and then AII was washed out repeatedly for 30 minutes before rechallenging with a higher concentration of AII. Aorta rings were exposed to the test antagonist at 10^−5 M for 5 minutes before challenging with AII. Adjacent segments of the same aorta ring were used for all concentration-response curves in the presence or absence of the test antagonist. The effectiveness of the test compound was expressed in terms of pA2 values and were calculated according to H. O. Schild [Br. J. Pharmacol. Chemother., 2,189-206 (1947)]. The PA2 value is the concentration of the antagonist which increases the EC50 value for AII by a factor of two. Each test antagonist was evaluated in aorta rings from two rabbits.

Where [2] appears, read: first value of the pair (aorta rings from two rabbits).
The mark [3] stands for this setting: second value of the pair (aorta rings from two rabbits).

Where two headings read alike, the source gives them in different places. Where only a bound is given, the exact number is not on record here.

Turning to `CCCCc1cn(CCCC)c(=O)n1Cc1ccc(-c2ccccc2-c2nnn[nH]2)nc1` [Example 1, 1,4-dibutyl-1,3-dihydro-3-[[6-[2-(1H-tetrazol-5-yl)phenyl]-3-pyridinyl]methyl]-2H-imidazol-2-one], the melting point fell in the range of 170 to 171 °C. Besides, in the data set with pressor response to AII, the “Assay C Duration” value was >180 min and the inhibition in vivo at 3 mg/kg worked out at 50%. The compound further returned an IC50 in data set [1] of 6.5 nM. Moreover, the Kb in the data set on rabbit aortic rings (setting [2]) was 1.51 nM. For the same compound, the Kb with rabbit aortic rings (setting [3]) was 2.95 nM.

On to `CCCCCc1cn(CCCC)c(=O)n1Cc1ccc(-c2ccccc2-c2nnn[nH]2)nc1` [Example 6, 1-butyl-4-yl-1,3-dihydro-3-[[6-[2-(1H-tetrazol-5-yl)phenyl]-3-pyridinyl]methyl]-2H-imidazol-2-one], for which the melting point was in the range of 176 to 177 °C. For the same compound, in the data set on pressor response to AII, the “Assay C Duration” value came to 180 min and the inhibition in vivo at 3 mg/kg amounted to 10%. In data set [1], the IC50 was determined as 10 nM. Besides, the Kb in the data set on rabbit aortic rings (setting [2]) is 13.5 nM. Also, the Kb in the data set with rabbit aortic rings (setting [3]) was 12.9 nM.

The compound `CCCCc1cn(CCC(C)C)c(=O)n1Cc1ccc(-c2ccccc2-c2nnn[nH]2)nc1` [Example 14, 1-isopentyl-4-butyl-1,3-dihydro-3-[[6-[2-(1H-tetrazol-5-yl)phenyl]-3-pyridinyl]methyl]-2H-imidazol-2-one] displayed a melting point of 168.5 to 170 °C. Further, in the data set on pressor response to AII, the “Assay C Duration” value is >180 min and the inhibition in vivo at 3 mg/kg was 35%. The compound further returned an IC50 in data set [1] of 7.6 nM. Also, the Kb in the data set with rabbit aortic rings (setting [2]) is 1.74 nM. Further, in the data set with rabbit aortic rings (setting [3]), the Kb was 2.29 nM.

Consider `CCCCCn1cc(CCCC)n(Cc2ccc(-c3ccccc3-c3nnn[nH]3)nc2)c1=O` [Example 15, 1-pentyl-4-butyl-1,3-dihydro-3-[[6-[2-(1H-tetrazol-5-yl)phenyl]-3-pyridinyl]methyl]-2H-imidazol-2-one], for which the melting point was in the range of 162 to 164 °C. For the same compound, in the data set with pressor response to AII, the “Assay C Duration” value is >180 min and the inhibition in vivo at 3 mg/kg turned out to be 60%. This compound displayed an IC50 in data set [1] of 10 nM. Moreover, the Kb in the data set with rabbit aortic rings (setting [2]) is 1.62 nM. Besides, the Kb in the data set on rabbit aortic rings (setting [3]) was 1.41 nM.

In the case of `CCCCc1cn(CC(C)(C)C)c(=O)n1Cc1ccc(-c2ccccc2-c2nnn[nH]2)nc1` [Example 18, 1-neopentyl-4-butyl-1,3-dihydro-3-[[6-[2-(1H-tetrazol-5-yl)phenyl]-3-pyridinyl]methyl]-2H-imidazol-2-one], the melting point lay in the range of 194.5 to 195 °C. Further, in the data set on pressor response to AII, the “Assay C Duration” value is >180 min and the inhibition in vivo at 3 mg/kg was 65%. The IC50 in data set [1] was determined as 12 nM. Besides, the Kb with rabbit aortic rings (setting [2]) is 1.62 nM. Moreover, the Kb with rabbit aortic rings (setting [3]) is 2.29 nM.

As for `CCCCc1cn(CC(CC)CC)c(=O)n1Cc1ccc(-c2ccccc2-c2nnn[nH]2)nc1` [Example 20, 1-(2-ethylbutyl)-4-butyl-1,3-dihydro-3-[[6-[2-(1H-tetrazol-5-yl)phenyl]-3-pyridinyl]methyl]-2H-imidazol-2-one], the melting point is 174 to 176 °C (dec.). Besides, in the data set on pressor response to AII, the “Assay C Duration” value is >180 min and 3 mg/kg produced 75% inhibition in vivo. The IC50 in data set [1] came to 16 nM. In addition, the Kb in the data set on rabbit aortic rings (setting [2]) is 0.676 nM. Also, in the data set on rabbit aortic rings (setting [3]), the Kb is 1.38 nM.

Consider `CCCCc1cn(C2CCCCC2)c(=O)n1Cc1ccc(-c2ccccc2-c2nnn[nH]2)nc1` [Example 21, 1-cyclohexyl-4-butyl-1,3-dihydro-3-[[6-[2-(1H-tetrazol-5-yl)phenyl]-3-pyridinyl]methyl]-2H-imidazol-2-one], for which the melting point is 202 to 203 °C (dec.). In addition, in the data set on pressor response to AII, the “Assay C Duration” value is >180 min and the inhibition in vivo at 3 mg/kg was found to be 40%. The same compound showed an IC50 in data set [1] of 20 nM. For the same compound, the Kb in the data set with rabbit aortic rings (setting [2]) was 0.724 nM. In addition, the Kb in the data set on rabbit aortic rings (setting [3]) was 0.708 nM.

Consider `CCCCc1cn(CCC2CC2)c(=O)n1Cc1ccc(-c2ccccc2-c2nnn[nH]2)nc1` [Example 22, 1-(2-cyclopropylethyl)-4-butyl 1,3-dihydro3-[[6-[2-(1H-tetrazol-5-yl)phenyl]-3-pyridinyl]methyl]-2H-imidazol-2-one], for which the melting point was 182 to 183 °C. Besides, in the data set on pressor response to AII, the “Assay C Duration” value was >180 min and 3 mg/kg produced 30% inhibition in vivo. Moreover, the IC50 in data set [1] came out at 5.4 nM. Moreover, the Kb in the data set with rabbit aortic rings (setting [2]) is 1.78 nM. Besides, the Kb in the data set on rabbit aortic rings (setting [3]) is 1.29 nM.

With `CCCCc1cn(CC2CCCC2)c(=O)n1Cc1ccc(-c2ccccc2-c2nnn[nH]2)nc1` [Example 24, 1-cyclopentylmethyl-4-butyl-1,3-dihydro-3-[[6-[2-(1H-tetrazol-5-yl)phenyl]-3-pyridinyl]methyl]-2H-imidazol-2-one], the melting point was 204 °C (dec.). For the same compound, in the data set on pressor response to AII, the “Assay C Duration” value is >180 min and the inhibition in vivo at 3 mg/kg is 50%. In addition, the IC50 in data set [1] came to 22 nM. Moreover, in the data set on rabbit aortic rings (setting [2]), the Kb is 0.646 nM. Besides, the Kb with rabbit aortic rings (setting [3]) is 2.04 nM.

`CCCCc1cn(CCc2cccs2)c(=O)n1Cc1ccc(-c2ccccc2-c2nnn[nH]2)nc1` [Example 25, 1-[2-(2-thienyl)ethyl]-4-butyl-1,3-dihydro-3-[[6-[2-(1H-tetrazol-5-yl)phenyl]-3-pyridinyl]methyl]-2H-imidazol-2-one]: the melting point lay within 137 to 138 °C. Further, in the data set with pressor response to AII, the “Assay C Duration” value was >180 min and the inhibition in vivo at 3 mg/kg was 25%. In data set [1], the IC50 amounted to 5 nM. In the data set with rabbit aortic rings (setting [2]), the Kb is 0.389 nM. In addition, in the data set with rabbit aortic rings (setting [3]), the Kb is 0.692 nM.

The compound `CCCCc1cn(-c2ccccc2Cl)c(=O)n1Cc1ccc(-c2ccccc2-c2nnn[nH]2)nc1` [Example 32, 1-(2-chlorophenyl)-4-butyl-1,3-dihydro-3-[[6-[2-(1H-tetrazol-5-yl)phenyl]-3-pyridinyl]methyl]-2H-imidazol-2-one] gave a melting point of 81 to 83 °C. In the data set on pressor response to AII, the “Assay C Duration” value is >180 min and testing at 3 mg/kg gave an inhibition in vivo of 50%. For the same compound, the IC50 in data set [1] was determined as 5.4 nM. The Kb in the data set on rabbit aortic rings (setting [2]) is 1.58 nM. Besides, in the data set on rabbit aortic rings (setting [3]), the Kb is 0.912 nM.

The values above are taken from patent US6492397B1, “N-arylheteroarylalkyl imidazol-2-one compounds for treatment of arteriosclerosis” (Pharmacia Corporation, priority 1991, dated 2002).
